Experimental data taken from BigSolDB 2.1.
Where “and” joins values, the source holds several entries; their conditions need not be identical. Equal entries are not always repeated.

O=[N+]([O-])c1ccc(N/N=C/c2ccc[nH]2)c([N+](=O)[O-])c1
Conditions	solubility (mole fraction)
in water, 298.15 K	1.6e-08

Nc1ccc(Cl)nn1
in water
Conditions	solubility (mole fraction)
293.65 K	6.28e-05
296.05 K	7.6e-05
303.05 K	0.000133
308.65 K	0.000197
323.35 K	0.000556
328.45 K	0.000747
333.15 K	0.000936

COc1cc(/C=C/C(=O)CC(=O)/C=C/c2ccc(O)c(OC)c2)ccc1O
in water
Conditions	solubility (mole fraction)
298.15 K	1.5e-07
303.15 K	1.7e-07
308.15 K	1.9e-07
313.15 K	2e-07
318.15 K	2.2e-07

CC(=O)N1CCN(c2ccc(OC[C@@H]3CO[C@@](Cn4ccnc4)(c4ccc(Cl)cc4Cl)O3)cc2)CC1 (racemic)
solubility (mole fraction)
Conditions	in 1,4-dioxane	in NMP	in ethanol	in isopropanol	in propylene glycol	in transcutol
293.2 K	0.00683	0.019	0.00275	0.000773	0.00161	0.0116
298.2 K	0.00833	0.023	0.00358	0.000948	0.00219	0.0136
303.2 K	0.00983	0.0282	0.00434	0.00121	0.00293	0.0159
308.2 K	0.0121	0.0321	0.00561	0.0018	0.00348	0.0189
313.2 K	0.0139	0.0376	0.00649	0.00237	0.00507	0.0212

c1ccc2c(c1)[nH]c1ccccc12
298.15 K
Conditions	solubility (mole fraction)
in 1-chlorooctane	0.00242
in 1-chlorotetradecane	0.0024
in chlorocyclohexane	0.00291
in dibutyl ether	0.00501

O=[N+]([O-])c1ccc(N/N=C/c2cccs2)c([N+](=O)[O-])c1
Conditions	solubility (mole fraction)
in water, 298.15 K	7e-09

O=C(O)c1ccc(-n2nc(-c3ccccc3O)nc2-c2ccccc2O)cc1
298.2 K
Conditions	solubility (mole fraction)
in acetonitrile	0.00106
in ethanol	0.0143
in methanol	0.0119
in propylene glycol	0.0195

c1ccc(-c2cnc(-c3ccccc3)o2)cc1
298.15 K
Conditions	solubility (mole fraction)
in acetone	0.29
in ethanol	0.04
in water	1.41e-07

F[P-](F)(F)(F)(F)F.F[P-](F)(F)(F)(F)F.c1cc[n+](CCCCCC[n+]2ccccc2)cc1
solubility (mole fraction)
Conditions	288.15 K	288.25 K	293.15 K	294.85 K	298.15 K	299.15 K	303.15 K	303.55 K	308.25 K
in acetone	0.00399	–	0.00402	–	0.00409	–	0.00431	–	–
in water	–	2.7e-05	–	4.2e-05	–	5.4e-05	–	7e-05	9e-05

O=C1c2ccccc2C(=O)N1O
in acetic acid
Conditions	solubility (mole fraction)
293.2 K	0.00298
303.2 K	0.00394
313.2 K	0.00504
323.2 K	0.00658
333.2 K	0.00816
343.2 K	0.0103
353.2 K	0.0127
363.2 K	0.0155

C=CC1=C(C(=O)O)N2C(=O)[C@@H](NC(=O)/C(=N\OCC(=O)O)c3csc(N)n3)[C@H]2SC1
in water
Conditions	solubility (mole fraction)
293.15 K	1.38e-05
298.15 K	1.65e-05
303.15 K	2.01e-05
308.15 K	2.49e-05
313.15 K	3.14e-05
323.15 K	4.74e-05
333.15 K	7.01e-05

C1CCCC1
in water
Conditions	solubility (mole fraction)
276.5 K	4.62e-05
282.2 K	4.29e-05
296.2 K	4.17e-05

CN1COCN(Cc2cnc(Cl)s2)C1=N[N+](=O)[O-]
in methanol
Conditions	solubility (mole fraction)
288.15 K	0.00111
293.15 K	0.00141
298.15 K	0.00169
303.15 K	0.00225
308.15 K	0.00294
313.15 K	0.00397
318.15 K	0.00486
323.15 K	0.0063

C(=N\Nc1ccccc1)/c1ccc[nH]1
Conditions	solubility (mole fraction)
in water, 298.15 K	5.86e-07

O=[N+]([O-])c1ccc(N/N=C/c2cccs2)cc1
Conditions	solubility (mole fraction)
in water, 298.15 K	1.68e-07

CN1C(C(=O)Nc2ccccn2)=C(O)c2ccccc2S1(=O)=O
298.15 K
Conditions	solubility (mole fraction)
in ethanol	0.000214
in water	4.01e-07

c1ccc2cc3ccccc3cc2c1
298.15 K
Conditions	solubility (mole fraction)
in 2,2,4-trimethylpentane	0.00107
in 2-butoxyethanol	0.00379
in 2-ethoxyethanol	0.00292
in 2-methoxyethanol	0.00221
in 2-pentanol	0.0008
in 2-propoxyethanol	0.00334
in MTBE	0.00305
in cyclohexane	0.00155
in isobutanol	0.00047
in isopentanol	0.000727
in isopropanol	0.000411
in methylcyclohexane	0.00165
in n-butanol	0.000801
in n-heptane	0.00157 and 0.00158
in n-hexane	0.00127
in n-octane	0.00184
in n-octanol	0.00216
in n-pentanol	0.0011
in n-propanol	0.000591
in sec-butanol	0.000585
in tert-amyl alcohol	0.00079
in tetrahydropyran	0.0102

O=c1cc[nH]c(=O)[nH]1
Conditions	solubility (mole fraction)
in water, 298.15 K	0.000743

c1ccc(P(c2ccccc2)c2ccccc2)cc1
in ethanol
Conditions	solubility (mole fraction)
303.5 K	0.009
308.3 K	0.0117
313.3 K	0.0162
318.6 K	0.0225
323.2 K	0.0279
327.9 K	0.0385
333 K	0.0494

O=C(O)c1cccc(C(=O)O)c1
in n-propyl acetate
Conditions	solubility (mole fraction)
303.2 K	0.000791
313.2 K	0.000934
323.2 K	0.00108
333.2 K	0.00132
343.2 K	0.00138
353.2 K	0.0018
363.2 K	0.00215
